Values quoted from earlier work in patent US20220378705A1, “METHOD FOR PREPARING PHARMACEUTICAL COMPOSITIONS CONTAINING AMPHIPHILIC ACTIVE INGREDIENTS” (PHARMADEV SA, priority 2019, published 2022).

What was measured:
[1] = octanol-water partition coefficient

SMILES: O=C(c1ccccc1)c1ccc2n1CCC2C(=O)O (racemic) [KETOROLAC, 2-amino-2-(hydroxymethyl)propane-1,3-2-amino-2-(hydroxymethyl)-1,3-propanediol(±)-5-benzoyl-2,3-dihydro-1H-pyrrolizine-1-carboxylic acid diol(±)-5-benzoyl-2,3-dihydro-1H-pyrrolizine-1-carboxylic acid]
- Log Po/w [1]: 2.3
- pKa: 3.84

SMILES: CC(C(=O)O)c1ccc(-c2ccccc2)c(F)c1 (stereo not shown) [FLURBIPROFEN, 2-(3-fluoro-4-phenylphenyl)propanoic acid]
- Log Po/w [1]: 4.16
- pKa: 4.17

SMILES: Cc1cccc(Nc2ccccc2C(=O)O)c1C [MEFENAMIC ACID, 2-(2,3-dimethylanilino)benzoic acid]
- Log Po/w [1]: 4.20

SMILES: O=C(O)c1cccnc1Nc1cccc(C(F)(F)F)c1 [NIFLUMIC ACID]
- Log Po/w [1]: 4.43
- pKa: 4.44
